{"source": "patent US20020148006A1", "about": "“Transgenic plants with modified sterol compositions” (Asgrow Seed Company, L.L.C., priority 1996, published 2002)", "origin": "cited, not measured here", "system": "serum and/or plasma total cholesterol and low density lipoprotein (LDL) cholesterol", "settings": "comparison of phytosterol structures; cited from earlier work"}
{"molecule": "CC[C@H](CC[C@@H](C)[C@H]1CC[C@H]2[C@@H]3CC[C@H]4C[C@@H](O)CC[C@]4(C)[C@H]3CC[C@]12C)C(C)C", "note": "[sitostanol]", "values": [{"measurement": "Reduction of cholesterol levels", "result": "more efficient compared to unsaturated compounds such as sitosterol in reducing cholesterol levels"}]}
